# According to patent US9505798B2, “Steroid compounds as RORyt modulators and uses thereof” (New York University, priority 2010, dated 2016):
# Legend:
# human memory Th17 cells = conditions: 40 μM, 6 days
# Experimental: Mononuclear cells were collected from draining lymph nodes of wild-type or IL-23RGFP knock-in heterozygous mice 7 days after MOG(35-55)/CFA injection.
# Blood samples were obtained from the New York Blood Center. Mononuclear cells were prepared from buffy coats from healthy adult donors or from cord blood, using FicollPAQUE gradients. CD4^+ T cells were magnetically selected (autoMACS, Miltenyi). Adult memory CD4^+ T cell subsets were further purified as CD3^+CD4^+CD25^− CD45RO^+CCR6^+CD161^+ by cell sorting on a FACSAria (BD). Naive CD4^+ T cells were isolated from cord blood as CD3^+CD4^+CD45RA^+HLA-DR^−CD25^−DAPI^−. Memory cells were activated with anti-CD3/CD28 coated beads (1 bead/cell) in T cell media (see above) supplemented with 100 U/mL IL-2 (Peprotech), 10 ng/mL IL-1b and 10 ng/mL IL-23 (eBioscience). Naive cells were activated with anti-CD3/CD28 beads and cultured with the same cytokines, and TGF-b (0, 0.1, 1, or, 10 ng/mL) (Peprotech), in XVIVO-20 (Lonza) media. […] Naive CD4^+ T cells, cultured in XVIVO-20 media supplemented 100 U/mL IL-2 (Peprotech), were transduced with RORad-IRES-GFP or RORγt-IRES-GFP on day 1 and analyzed on day 6. […]
# Blood samples were obtained from the New York Blood Center. […] Naive CD4+ T cells, cultured in XVIVO-20 media supplemented with 100 U/mL IL-2 (Peprotech), were transduced with RORαd-IRES-GFP or RORγt-IRES-GFP on day 1 and analyzed on day 6. […]
# C. elegans Daf12 = molecular target: T1, C. elegans Daf12 (Caenorhabditis elegans, UniProt G5EFF5); experiment: S2 cell Daf12 reporter; format: cell-based
# T1 construct: C. elegans Daf12 (amino acids 184 to end); expressed in transfected cells; host or cells: Drosophila S2 cells
# Text: The Drosophila S2 cell line was originally purchased from Invitrogen and was maintained in Schneider's Drosophila medium supplemented with 10% heat-inactivated bovine fetal calf serum and 1× antibiotic-antimycotic solution (Invitrogen). The Gal4 DNA binding domain (G4 DBD), corresponding to amino acids 1 through 147 of the Gal4 protein, was PCR amplified to make the fusion construct with murine RORγ (amino acids 79 to the carboxyl terminal end) lacking its DNA binding domain. The resulting chimeric gene was subcloned into the copper inducible pMT/V5-His A vector (Invitrogen) and into the constitutive pAc vector. Similar methods yielded fusion constructs between G4 DBD and murine RORα (amino acids 142 to end), Drosophila DHR3 (amino acids 120 to end), C. elegans Daf12 (amino acids 184 to end), and herpes simplex virus VP16 (amino acids 413 to end). Coding sequences for firefly luciferase (Promega) were PCR amplified and subcloned into the pUAST vector containing five Gal4 binding enhancer sequences. The Renilla luciferase construct under a pol III promoter and the pAc vector were obtained from R. Dasgupta (NYU School of Medicine). […]
# [1] = test system: experimental autoimmune encephalomyelitis (EAE); experiment: Active EAE (MOG35-55/CFA) in C57BL/6 mice; format: in vivo, mouse
# human androgen receptor = molecular target: T2, human androgen receptor (Homo sapiens, UniProt P10275); experiment: S2 cell human androgen receptor reporter; format: cell-based
# T2 construct: expressed in transfected cells; host or cells: Drosophila S2 cells, plasmid pMK33-hAR
# T2 sequence (P10275 whole entry): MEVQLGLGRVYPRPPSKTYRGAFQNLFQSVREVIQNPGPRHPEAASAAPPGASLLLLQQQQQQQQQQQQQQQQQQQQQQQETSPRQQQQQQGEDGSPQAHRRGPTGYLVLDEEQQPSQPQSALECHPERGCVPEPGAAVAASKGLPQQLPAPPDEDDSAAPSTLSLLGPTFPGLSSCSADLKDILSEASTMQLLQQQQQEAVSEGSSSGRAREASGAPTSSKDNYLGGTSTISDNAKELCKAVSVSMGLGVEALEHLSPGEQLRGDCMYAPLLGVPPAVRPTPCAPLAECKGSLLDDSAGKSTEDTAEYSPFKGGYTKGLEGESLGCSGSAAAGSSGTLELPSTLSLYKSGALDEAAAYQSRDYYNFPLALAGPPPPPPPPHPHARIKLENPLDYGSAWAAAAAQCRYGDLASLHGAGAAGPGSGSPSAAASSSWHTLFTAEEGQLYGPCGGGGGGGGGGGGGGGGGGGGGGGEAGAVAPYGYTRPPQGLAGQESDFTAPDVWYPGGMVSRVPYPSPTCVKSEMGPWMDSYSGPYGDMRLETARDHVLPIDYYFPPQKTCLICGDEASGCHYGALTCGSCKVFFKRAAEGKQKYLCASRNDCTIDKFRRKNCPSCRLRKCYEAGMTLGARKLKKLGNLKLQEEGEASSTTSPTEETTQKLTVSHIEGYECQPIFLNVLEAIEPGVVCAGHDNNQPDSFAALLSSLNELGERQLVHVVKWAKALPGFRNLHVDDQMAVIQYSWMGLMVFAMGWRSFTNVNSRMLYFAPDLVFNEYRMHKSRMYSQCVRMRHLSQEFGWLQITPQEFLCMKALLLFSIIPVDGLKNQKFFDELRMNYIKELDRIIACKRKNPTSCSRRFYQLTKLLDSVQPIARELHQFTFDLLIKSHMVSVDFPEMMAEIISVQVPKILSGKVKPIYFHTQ
# T1 sequence (G5EFF5 184-753 limits assumed): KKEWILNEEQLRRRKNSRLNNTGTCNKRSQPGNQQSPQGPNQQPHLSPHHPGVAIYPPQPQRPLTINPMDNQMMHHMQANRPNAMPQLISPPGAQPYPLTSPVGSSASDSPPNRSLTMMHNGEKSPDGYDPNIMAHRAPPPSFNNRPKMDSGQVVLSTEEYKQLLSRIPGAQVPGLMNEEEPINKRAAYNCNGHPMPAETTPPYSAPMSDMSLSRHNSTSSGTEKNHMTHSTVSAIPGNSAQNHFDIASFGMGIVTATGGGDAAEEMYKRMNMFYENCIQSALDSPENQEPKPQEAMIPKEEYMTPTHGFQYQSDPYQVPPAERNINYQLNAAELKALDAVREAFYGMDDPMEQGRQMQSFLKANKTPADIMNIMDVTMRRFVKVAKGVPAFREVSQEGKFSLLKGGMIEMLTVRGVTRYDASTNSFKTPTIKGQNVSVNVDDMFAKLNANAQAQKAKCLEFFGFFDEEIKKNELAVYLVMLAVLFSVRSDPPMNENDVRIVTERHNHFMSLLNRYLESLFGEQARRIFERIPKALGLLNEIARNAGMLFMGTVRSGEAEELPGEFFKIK
Structure (SMILES),IFN-γ-expressing cells (human memory Th17 cells),reduction of IL-17a-expressing cells (human memory Th17 cells),inhibition of C. elegans Daf12 activity (C. elegans Daf12),EAE onset and severity of progression ([1]; IP daily from day 2),percentage of IFN-γ-producing Th1 cells infiltrating the spinal cord ([1]; compared to DMSO-treated mice),"reduction of percentage of IL-17-producing T cells infiltrating the spinal cord ([1]; compared to DMSO-treated mice, day 21)","total number of mononuclear cells infiltrating the spinal cord ([1]; mouse, in vivo)",inhibition of human androgen receptor activity (human androgen receptor)
"CC1O[C@@H](OC2C(C)O[C@H](OC3C(C)O[C@@H](O[C@H]4CC[C@@]5(C)[C@H](CC[C@@H]6[C@@H]5C[C@@H](O)[C@]5(C)[C@@H](C(CO)CCO)CC[C@]65O)C4)C[C@H]3O)C[C@H]2O)C[C@@H](O)C1O (some centres unmarked) [Compound 13, 20,22-Dihydrodigoxin-21,23-diol]",little effect,40-50%,,,,,,
C[C@H]1O[C@@H](O[C@H]2[C@@H](O)C[C@H](O[C@H]3[C@@H](O)C[C@H](O[C@H]4CC[C@@]5(C)[C@H](CC[C@@H]6[C@@H]5C[C@@H](O)[C@]5(C)[C@@H](C7=CC(=O)OC7)CC[C@]65O)C4)O[C@@H]3C)O[C@@H]2C)C[C@H](O)[C@@H]1O [Digoxin],,,did not inhibit,"not only delayed onset, but also reduced severity",approximately the same,more than 50%,markedly reduced,did not inhibit
